Source: patent publication US4199598A, “Method of treating noradrenaline dysfunction or for dopamine-β-hydroxylase inhibition” (Richter Gedeon Vegyeszeti Gyar Rt., priority 1976, dated 1980)

Key:
[1] = tested on: dopamine-β-hydroxylase; test: Noradrenaline, dopamine, serotonine and 5-hydroxy-indolylacetic acid contents of cerebrum (dopamine-β-hydroxylase inhibiting effect); assay type: in vivo, male Wister rats; details: rats, i.p., 4 hours; for response vs control in vivo at 100 mg/kg / response vs control in vivo at 200 mg/kg: Rattus norvegicus, ip, ± Standard Error
Protocol: (§1) The dopamine-β-hydroxylase inhibiting effects of the compounds according to the invention were examined by the following tests:
(§2) The tests were performed on male Wister rats weighing 150 to 200 g. The dopamine-β-hydroxylase inhibiting effects of the compounds were evaluated by determining the change of noradrenaline, dopamine and adrenaline levels of the cerebrum, heart, spleen and adrenal gland. The serotonine and 5-hydroxy-indolyl-acetic acid levels of the cerebrum were also determined. The measurements were performed as follows:
(§3) The animals were decapitated, the cerebrum, heart, spleen and adrenal gland were removed quickly, and the organs were frozen by placing them onto a metal sheet cooled with dry ice. The frozen organs were stored for a maximum of one night at -20° C.
(§4) Noradrenaline was determined according to the method of Shellenberger et al (Anal. Biochem., Vol. 39, p. 356, 1971), with the following modifications of the basic procedure: 0.5 ml of 0.1 molar Na-K-phosphate buffer, containing 9 g/l of EDTA-Na2, were added to 0.5 ml of the eluate, and the catecholamines (noradrenaline in the examination of heart and spleen and noradrenaline and dopamine in the examination of the cerebrum) were oxidized with 0.1 ml of a 0.1 N iodine solution in 5% potassium iodide. […] Thereafter the samples were placed for 5 minutes in a drying oven heated to 100° C., and then the samples were cooled with ice water. The fluorescence of noradrenaline was measured with an OPTON spectrophotometer at wavelengths of 390 nm (excitation) and 490 nm (emission).
Determination of the noradrenaline, dopamine, serotonine and 5-hydroxy-indolylacetic acid contents of cerebrum
The brains were homogenized in 10 parts by volume of 0.4 N perchloric acid. The homogenized mixture was stored at -20° C. overnight; thereafter it was thawed and centrifuged as described above. A sample of homogenized mixture corresponding to 0.5 g of brain was removed, the pH of the sample was adjusted to 8.0±0.1 with 0.1 molar tris-buffer of the above composition, and the sample was processed as described above for the determination of the noradrenaline content of heart and spleen, with the difference that 1.5 ml of 0.05 N perchloric acid were applied as eluting agent. 0.5 ml of the eluate were applied to determine the noradrenaline and dopamine content. The measurement was performed as described above, with the difference that samples of 0.5 ml were applied for the recording of the fluorescence of noradrenaline. The residue was placed for 50 minutes into a drying oven heated to 100° C.; thereafter the sample was cooled with ice water, and the fluorescence of dopamine was recorded at wavelengths of 325 nm (excitation) and 380 nm (emission).
In a further test series the serotonine and 5-hydroxy-indolylacetic acid contents were also determined, in addition to the determination of the noradrenaline and dopamine contents, from the same sample. In this instance the brains were homogenized in 10 ml of 75% ethanol, 0.2 ml of EDTA-Na2 and 5% of ascorbic acid were added to the homogenized mixtures, and the homogenized mixtures were maintained at -20° C. overnight. The mixtures were then centrifuged as described above, and 5.0 ml samples of the supernatant were removed. The samples were diluted with equal volumes of distilled water, and poured onto ion-exchange columns of 0.5×1.5 cm dimensions, filled with buffered Amberlite CG-30 (200 to 400 mesh). The columns were washed with 5 ml of distilled water followed with 1.0 ml of 0.2 N hydrochloric acid, and the first effluent and the aqueous wash were collected for the determination of 5-hydroxy-indolylacetic acid. Elution was continued with further 1.2 ml of 0.2 N hydrochloric acid in order to remove noradrenaline, dopamine and serotonine. Samples of 0.3 ml were used for the determinations. […]

[2] = tested on: dopamine-β-hydroxylase; test: Noradrenaline content of heart (dopamine-β-hydroxylase inhibiting effect); assay type: in vivo, male Wister rats; details: rats, i.p., 4 hours; for response vs control in vivo at 100 mg/kg / response vs control in vivo at 200 mg/kg: Rattus norvegicus, ip, ± Standard Error, read-out: Amine level, heart NA (noradrenaline)
Protocol: as §1, §2, §3
(§5) Determination of the noradrenaline content of heart and spleen
(§6) The organs were weighed in frozen state and then homogenized in 5.0 ml of 0.4 N perchloric acid containing 0.05% of EDTA-Na2 and 0.1% of Na2 S2 O5. The homogenized mixtures were centrifuged as described above for the treatment of adrenal gland, the supernatants were decanted, and the pH was adjusted to 8.0±0.1 with a 0.1 molar tris buffer containing 20 g/l of NaOH and 25 g/l of EDTA-Na2. 100 mg of prepared Al2 O3 (Anton et al: J. Pharm. Ther., Vol. 138, p. 360, 1962) were added to the samples, and the mixtures were shaken mechanically for 20 minutes. Thereafter the Al2 O3 were washed with 2.10 ml of distilled water, and the noradrenaline was eluted with 1.0 ml of 0.05 N perchloric acid. 0.5 ml samples of the eluate were applied for the determination of noradrenaline.
as §4
(§7) In the tests disulfiram, 2,2-dipyridyl, bis(1-methyl-4-homopiperazinyl-thiocarbonyl)-disulfide, sodium diethyldithiocarbamate and N-phenyl-N'-(2-thiazolyl)-thiourea were used as reference substances. The values indicated in Table 1 are percentages in relation to the amine levels of the controls measured in the same tests (± Standard Error). The statistical calculations were performed on a TPA/i type computer, using Student's test.

[3] = tested on: dopamine-β-hydroxylase; test: Noradrenaline content of spleen (dopamine-β-hydroxylase inhibiting effect); assay type: in vivo, male Wister rats; details: rats, i.p., 4 hours; for response vs control in vivo at 100 mg/kg / response vs control in vivo at 200 mg/kg: Rattus norvegicus, ip, ± Standard Error, read-out: Amine level, spleen NA (noradrenaline)
Protocol: as §1, §2, §3, §5, §6, §4, §7

[4] = tested on: dopamine-β-hydroxylase; test: Adrenaline content of adrenal gland (dopamine-β-hydroxylase inhibiting effect); assay type: in vivo, male Wister rats; details: rats, i.p., 4 hours; for response vs control in vivo at 100 mg/kg / response vs control in vivo at 200 mg/kg: Rattus norvegicus, ip, ± Standard Error, read-out: Amine level, adrenal gland AD (adrenaline)
Protocol: as §1, §2, §3
Determination of the adrenaline content of adrenal gland
The adrenal glands were freed from fat and homogenized in 3.0 ml of ice-cold 0.4 N perchloric acid. The homogenized mixtures were centrifuged for 10 minutes at 0° C. with a speed of 3200 r.p.m. on a Janetzky K-70 type centrifuge. 0.05 ml samples were taken from the supernatant, and the adrenaline level was determined directly by the method of Laverty et al (Anal. Biochem., Vol. 22, p. 269, 1968).
as §7

[5] = Toxicity (LD50), rats; details: rat, in vivo, ip
[6] = tested on: dopamine-β-hydroxylase; details: in vitro, in words, prior art; cited from earlier work
[7] = in vivo; details: mouse, ip
[8] = tested on: dopamine-β-hydroxylase; details: in words, prior art; cited from earlier work
[9] = read-out: Amine level, cerebrum DA (dopamine)
[10] = read-out: Amine level, cerebrum NA (noradrenaline)
[11] = read-out: Amine level, cerebrum SE (serotonine)
[12] = read-out: Level, cerebrum 5-HIAA (5-hydroxy-indolylacetic acid)

SMILES	response vs control in vivo at 200 mg/kg [1, 9]	response vs control in vivo at 200 mg/kg [1, 10]	response vs control in vivo at 200 mg/kg [1, 11]	response vs control in vivo at 200 mg/kg [1, 12]	response vs control in vivo at 200 mg/kg [2]	response vs control in vivo at 200 mg/kg [3]	response vs control in vivo at 200 mg/kg [4]	LD50 [7]	other results
c1ccc(-c2ccccn2)nc1 [2,2-D, 2,2-dipyridyl, reference compound]									Amine level, cerebrum DA (dopamine) ([1]; 37.5 mg/kg): 116 percentages in relation to the controls; Amine level, cerebrum NA (noradrenaline) ([1]; 37.5 mg/kg): 79.5 percentages in relation to the controls; Amine level, cerebrum DA (dopamine) ([1]; 75 mg/kg): 95 percentages in relation to the controls; Amine level, cerebrum NA (noradrenaline) ([1]; 75 mg/kg): 41.2 percentages in relation to the controls; Amine level, cerebrum SE (serotonine) ([1]; 75 mg/kg): 100 percentages in relation to the controls; Amine level, heart NA (noradrenaline) ([2]; 37.5 mg/kg): 104 percentages in relation to the controls; Amine level, heart NA (noradrenaline) ([2]; 75 mg/kg): 58 percentages in relation to the controls; Amine level, spleen NA (noradrenaline) ([3]; 37.5 mg/kg): 100 percentages in relation to the controls; Amine level, adrenal gland AD (adrenaline) ([4]; 37.5 mg/kg): 80 percentages in relation to the controls; Amine level, adrenal gland AD (adrenaline) ([4]; 75 mg/kg): 63 percentages in relation to the controls; LD50 [5]: 150 mg/kg; dopamine-β-hydroxylase inhibition in vitro [6]: effective under in vitro conditions
OCCNC1=C(C(=S)S)CCC1 [Compound M-4, 2-(N-hydroxyethyl)-amino-cyclopent-1-ene-dithiocarboxylic acid]	126 ± 2.5%	41.6 ± 2%	122 ± 10.5%	132 ± 12.6%	75.4 ± 8.3%	98.4 ± 17.1%	93.4 ± 7.5%	~800 mg/kg	response vs control in vivo at 100 mg/kg [1, 9]: 110 ± 3.5%; response vs control in vivo at 100 mg/kg [1, 10]: 65.4 ± 4.9%; response vs control in vivo at 100 mg/kg [1, 11]: 110 ± 3.3%; response vs control in vivo at 100 mg/kg [2]: 85 ± 9.7%; response vs control in vivo at 100 mg/kg [3]: 81.4 ± 9.4%; response vs control in vivo at 100 mg/kg [4]: 82.7 ± 4.2%
NC(CCCNC1=C(C(=S)S)CCC1)C(=O)O (centres unmarked) [Compound M-5, 2-[N-(4-carboxy-4-amino)-butyl]-amino-cyclopent-1-ene-dithiocarboxylicacid]	102 ± 1.8%	69.3 ± 2.9%	114 ± 3.6%	141 ± 10%	75 ± 10.6%	67.1 ± 6.2%	70.7 ± 3.3%	~700 mg/kg	response vs control in vivo at 100 mg/kg [1, 9]: 100 ± 4.8%; response vs control in vivo at 100 mg/kg [1, 10]: 81.7 ± 4.5%; response vs control in vivo at 100 mg/kg [1, 11]: 110 ± 4.1%; response vs control in vivo at 100 mg/kg [2]: 98.4 ± 5.4%; response vs control in vivo at 100 mg/kg [3]: 76.4 ± 11.1%; response vs control in vivo at 100 mg/kg [4]: 69.4 ± 4%
S=C(S)C1=C(NC2CCCCC2)CCC1 [Compound M-6, 2-(N-cyclohexyl)-amino-cyclopent-1-ene-dithiocarboxylic acid]	107 ± 5.6%	40.7 ± 1.1%	101 ± 5.1%	150 ± 8.5%	92.7 ± 6.5%	98.1 ± 13.7%	94.9 ± 3.4%	> 1000 mg/kg	
NC(CCCCNC1=C(C(=S)S)CCC1)C(=O)O (centres unmarked) [Compound M-7, 2-[N-(5-carboxy-5-amino)-pentyl]-amino-cyclopent-1-ene-dithiocarboxylic ac id]	106 ± 7.2%	65.8 ± 3%	99.7 ± 6.8%	153 ± 13%	95.6 ± 8.5%	85.3 ± 17.7%	79.5 ± 6.5%	~900 mg/kg	
S=C(S)C1=C(Nc2ccccc2)CCC1 [Compound M-8, 2-(N-phenyl)-amino-cyclopent-1-ene-dithiocarboxylic acid]	97.3 ± 7.1%	75.6 ± 4.6%	102 ± 7.9%	135 ± 10%	99.9 ± 2.9%	71.3 ± 12.8%	88.4 ± 4.6%	> 1000 mg/kg	
CN1CCCN(C(=S)SSC(=S)N2CCCN(C)CC2)CC1 [FLA-63, bis(1-methyl-4-homopiperazinyl)-thiocarbonyl-disulfide]									dopamine-β-hydroxylase inhibition in vivo [8]: one of the most potent dopamine-β-hydroxylase inhibitors in vivo
